System: HEK293 cells
Assay: Preliminary screening as DNA vectors, GFP transfection of HEK293 cells
Format: cell-based
Details: amino lipid/DOPE liposome with 75 ng plasmid DNA (psin-EGFP-IRES-Puro); number of GFP-expressing cells divided by total nuclei (Hoechst)
Outline: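 First, amino lipid and DOPE were vortexed in sodium acetate buffer (pH 5.6) to form liposomes. Next, these were held with 75 ng EGFP plasmid at room temperature for 30 min. Finally, HEK293 cells were added, cultured at 37° C., Hoechst-stained, and GFP+/total nuclei scored by imaging.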

Row | SMILES | Absolute DNA transfection efficiency in HEK293 cells [%]
1 | CCCCCCCCCCSc1nc(NCCN2CCCC2)nc(SCCCCCCCC)n1 [S8S10 D3] | 8.9
2 | CCCCCCCCCCSc1nc(NCCN2CCCCC2)nc(SCCCCCCCC)n1 [S8S10 D4] | 8.3
3 | CCCCCCCCCCSc1nc(NCCN2CCN(C)CC2)nc(SCCCCCCCC)n1 [S8S10 D5] | 19.5
4 | CCCCCCCCCCSc1nc(NCCCN(C)C)nc(SCCCCCCCC)n1 [S8S10 D6] | 9.3
5 | CCCCCCCCCCSc1nc(NCCN(CC)CC)nc(SCCCCCCCC)n1 [S8S10 D7] | 11.4
6 | CCCCCCCCCCSc1nc(NCCCN2CCOCC2)nc(SCCCCCCCC)n1 [S8S10 D8] | 13.7
7 | CCCCCCCCCCSc1nc(NCCCN2CCN(C)CC2)nc(SCCCCCCCC)n1 [S8S10 D9] | 25.6
8 | CCCCCCCCCCSc1nc(NCC2CCN(C)CC2)nc(SCCCCCCCC)n1 [S8S10 D10] | 26.2
9 | CCCCCCCCCCCSc1nc(NCCN(C)C)nc(SCCCCCCCC)n1 [S8S11 D1] | 9.2
10 | CCCCCCCCCCCSc1nc(NCCN2CCOCC2)nc(SCCCCCCCC)n1 [S8S11 D2] | 17.9
11 | CCCCCCCCCCCSc1nc(NCCN2CCCC2)nc(SCCCCCCCC)n1 [S8S11 D3] | 6.1
12 | CCCCCCCCCCCSc1nc(NCCN2CCCCC2)nc(SCCCCCCCC)n1 [S8S11 D4] | 8.5
13 | CCCCCCCCCCCSc1nc(NCCN2CCN(C)CC2)nc(SCCCCCCCC)n1 [S8S11 D5] | 10.6
14 | CCCCCCCCCCCSc1nc(NCCCN(C)C)nc(SCCCCCCCC)n1 [S8S11 D6] | 7.9
15 | CCCCCCCCCCCSc1nc(NCCN(CC)CC)nc(SCCCCCCCC)n1 [S8S11 D7] | 10.3
16 | CCCCCCCCCCCSc1nc(NCCCN2CCOCC2)nc(SCCCCCCCC)n1 [S8S11 D8] | 15.3
17 | CCCCCCCCCCCSc1nc(NCCCN2CCN(C)CC2)nc(SCCCCCCCC)n1 [S8S11 D9] | 12.8
18 | CCCCCCCCCCCSc1nc(NCC2CCN(C)CC2)nc(SCCCCCCCC)n1 [S8S11 D10] | 42.4
19 | CCCCCCCCCCCCSc1nc(NCCN(C)C)nc(SCCCCCCCC)n1 [S8S12 D1] | 10.7
20 | CCCCCCCCCCCCSc1nc(NCCN2CCOCC2)nc(SCCCCCCCC)n1 [S8S12 D2] | 16.1
21 | CCCCCCCCCCCCSc1nc(NCCN2CCCC2)nc(SCCCCCCCC)n1 [S8S12 D3] | 10.9
22 | CCCCCCCCCCCCSc1nc(NCCN2CCCCC2)nc(SCCCCCCCC)n1 [S8S12 D4] | 10.8
23 | CCCCCCCCCCCCSc1nc(NCCN2CCN(C)CC2)nc(SCCCCCCCC)n1 [S8S12 D5] | 24.8
24 | CCCCCCCCCCCCSc1nc(NCCCN(C)C)nc(SCCCCCCCC)n1 [S8S12 D6] | 12.6
25 | CCCCCCCCCCCCSc1nc(NCCN(CC)CC)nc(SCCCCCCCC)n1 [S8S12 D7] | 9.3

Row | SMILES | Absolute DNA transfection efficiency in HEK293 cells [%]
26 | CCCCCCCCCCCCSc1nc(NCCCN2CCOCC2)nc(SCCCCCCCC)n1 [S8S12 D8] | 34.4
27 | CCCCCCCCCCCCSc1nc(NCCCN2CCN(C)CC2)nc(SCCCCCCCC)n1 [S8S12 D9] | 3.5
28 | CCCCCCCCCCCCSc1nc(NCC2CCN(C)CC2)nc(SCCCCCCCC)n1 [S8S12 D10] | 23.5
29 | CCCCCCCCCCCCN(CCCCCCCCCCCC)c1nc(NCCN(C)C)nc(SCCCCCCCC)n1 [S8^2N12 D1] | 0.0
30 | CCCCCCCCCCCCN(CCCCCCCCCCCC)c1nc(NCCN2CCOCC2)nc(SCCCCCCCC)n1 [S8^2N12 D2] | 0.0
31 | CCCCCCCCCCCCN(CCCCCCCCCCCC)c1nc(NCCN2CCCC2)nc(SCCCCCCCC)n1 [S8^2N12 D3] | 0.1
32 | CCCCCCCCCCCCN(CCCCCCCCCCCC)c1nc(NCCN2CCCCC2)nc(SCCCCCCCC)n1 [S8^2N12 D4] | 0.0
33 | CCCCCCCCCCCCN(CCCCCCCCCCCC)c1nc(NCCN2CCN(C)CC2)nc(SCCCCCCCC)n1 [S8^2N12 D5] | 0.8
34 | CCCCCCCCCCCCN(CCCCCCCCCCCC)c1nc(NCCCN(C)C)nc(SCCCCCCCC)n1 [S8^2N12 D6] | 0.5
35 | CCCCCCCCCCCCN(CCCCCCCCCCCC)c1nc(NCCN(CC)CC)nc(SCCCCCCCC)n1 [S8^2N12 D7] | 0.1
36 | CCCCCCCCCCCCN(CCCCCCCCCCCC)c1nc(NCCCN2CCOCC2)nc(SCCCCCCCC)n1 [S8^2N12 D8] | 0.0
37 | CCCCCCCCCCCCN(CCCCCCCCCCCC)c1nc(NCCCN2CCN(C)CC2)nc(SCCCCCCCC)n1 [S8^2N12 D9] | 0.7
38 | CCCCCCCCCCCCN(CCCCCCCCCCCC)c1nc(NCC2CCN(C)CC2)nc(SCCCCCCCC)n1 [S8^2N12 D10] | 0.8
39 | CCCCCCCCCSc1nc(NCCCCCC)nc(NCCN(C)C)n1 [S9N6 D1] | 16.1
40 | CCCCCCCCCSc1nc(NCCCCCC)nc(NCCN2CCOCC2)n1 [S9N6 D2] | 2.1
41 | CCCCCCCCCSc1nc(NCCCCCC)nc(NCCN2CCCC2)n1 [S9N6 D3] | 27.0
42 | CCCCCCCCCSc1nc(NCCCCCC)nc(NCCN2CCCCC2)n1 [S9N6 D4] | 20.7
43 | CCCCCCCCCSc1nc(NCCCCCC)nc(NCCN2CCN(C)CC2)n1 [S9N6 D5] | 22.4
44 | CCCCCCCCCSc1nc(NCCCCCC)nc(NCCCN(C)C)n1 [S9N6 D6] | 8.8
45 | CCCCCCCCCSc1nc(NCCCCCC)nc(NCCN(CC)CC)n1 [S9N6 D7] | 9.8
46 | CCCCCCCCCSc1nc(NCCCCCC)nc(NCCCN2CCOCC2)n1 [S9N6 D8] | 7.8
47 | CCCCCCCCCSc1nc(NCCCCCC)nc(NCCCN2CCN(C)CC2)n1 [S9N6 D9] | 11.0
48 | CCCCCCCCCSc1nc(NCCCCCC)nc(NCC2CCN(C)CC2)n1 [S9N6 D10] | 9.7
49 | CCCCCCCCCSc1nc(NCCCCCCC)nc(NCCN(C)C)n1 [S9N7 D1] | 36.0
50 | CCCCCCCCCSc1nc(NCCCCCCC)nc(NCCN2CCOCC2)n1 [S9N7 D2] | 4.4

Row | SMILES | Absolute DNA transfection efficiency in HEK293 cells [%]
51 | CCCCCCCCCSc1nc(NCCCCCCC)nc(NCCN2CCCC2)n1 [S9N7 D3] | 27.3
52 | CCCCCCCCCSc1nc(NCCCCCCC)nc(NCCN2CCCCC2)n1 [S9N7 D4] | 21.9
53 | CCCCCCCCCSc1nc(NCCCCCCC)nc(NCCN2CCN(C)CC2)n1 [S9N7 D5] | 18.3
54 | CCCCCCCCCSc1nc(NCCCCCCC)nc(NCCCN(C)C)n1 [S9N7 D6] | 12.4
55 | CCCCCCCCCSc1nc(NCCCCCCC)nc(NCCN(CC)CC)n1 [S9N7 D7] | 15.2
56 | CCCCCCCCCSc1nc(NCCCCCCC)nc(NCCCN2CCOCC2)n1 [S9N7 D8] | 6.1
57 | CCCCCCCCCSc1nc(NCCCCCCC)nc(NCCCN2CCN(C)CC2)n1 [S9N7 D9] | 12.1
58 | CCCCCCCCCSc1nc(NCCCCCCC)nc(NCC2CCN(C)CC2)n1 [S9N7 D10] | 9.3
59 | CCCCCCCCCSc1nc(NCCCCCCCC)nc(NCCN(C)C)n1 [S9N8 D1] | 37.3
60 | CCCCCCCCCSc1nc(NCCCCCCCC)nc(NCCN2CCOCC2)n1 [S9N8 D2] | 13.9
61 | CCCCCCCCCSc1nc(NCCCCCCCC)nc(NCCN2CCCC2)n1 [S9N8 D3] | 37.6
62 | CCCCCCCCCSc1nc(NCCCCCCCC)nc(NCCN2CCCCC2)n1 [S9N8 D4] | 27.3
63 | CCCCCCCCCSc1nc(NCCCCCCCC)nc(NCCN2CCN(C)CC2)n1 [S9N8 D5] | 30.3
64 | CCCCCCCCCSc1nc(NCCCCCCCC)nc(NCCCN(C)C)n1 [S9N8 D6] | 17.9
65 | CCCCCCCCCSc1nc(NCCCCCCCC)nc(NCCN(CC)CC)n1 [S9N8 D7] | 15.7
66 | CCCCCCCCCSc1nc(NCCCCCCCC)nc(NCCCN2CCOCC2)n1 [S9N8 D8] | 12.2
67 | CCCCCCCCCSc1nc(NCCCCCCCC)nc(NCCCN2CCN(C)CC2)n1 [S9N8 D9] | 25.7
68 | CCCCCCCCCSc1nc(NCCCCCCCC)nc(NCC2CCN(C)CC2)n1 [S9N8 D10] | 17.2
69 | CCCCCCCCCNc1nc(NCCN(C)C)nc(SCCCCCCCCC)n1 [S9N9 D1] | 35.3
70 | CCCCCCCCCNc1nc(NCCN2CCOCC2)nc(SCCCCCCCCC)n1 [S9N9 D2] | 24.0
71 | CCCCCCCCCNc1nc(NCCN2CCCC2)nc(SCCCCCCCCC)n1 [S9N9 D3] | 54.9
72 | CCCCCCCCCNc1nc(NCCN2CCCCC2)nc(SCCCCCCCCC)n1 [S9N9 D4] | 18.0
73 | CCCCCCCCCNc1nc(NCCN2CCN(C)CC2)nc(SCCCCCCCCC)n1 [S9N9 D5] | 47.4
74 | CCCCCCCCCNc1nc(NCCCN(C)C)nc(SCCCCCCCCC)n1 [S9N9 D6] | 60.6
75 | CCCCCCCCCNc1nc(NCCN(CC)CC)nc(SCCCCCCCCC)n1 [S9N9 D7] | 49.8

Reference: patent US20230123334A1, “AMINO LIPID COMPOUND, PREPARATION METHOD THEREFOR, AND APPLICATION THEREOF” (SHENZHEN SHENXIN BIOTECHNOLOGY CO., LTD., priority 2020, published 2023)
